This is an account of results in patent US20080119527A1, “Composition for combating the localized hyperpigmentation of dark skin” (L'OREAL, priority 2006, published 2008).

Holding throughout (type): cell-based
Data set [1] has as its system coculture of normal human keratinocytes and melanocytes. The experiment in a line: Tritiated leucine incorporation (proliferation and early cytotoxicity indicator) in the coculture. The text has this:
(§1) Specifically, 50 000 normal human keratinocytes and 17 000 normal human melanocytes are mixed together and inoculated per well in 96-well plates (Costar type) and cultured for three days in the differentiation medium. During the following three days, the culture medium is replaced daily with the defined test medium (containing the products to be evaluated, and also 3 μCi/ml of C14-labelled thiouracil).
The total radioactivity incorporated into the proteins is estimated by the incorporation of tritiated leucine, taken as the proliferation indicator and the early cytotoxicity indicator. On the day before the sample is taken, 1 μCi/ml of tritiated leucine is added to the test medium. It is considered that a product is cytotoxic when the content of tritiated leucine falls by at least 30%.
(§2) After one night, the cells are rinsed in phosphate buffer (phosphate-buffered saline, PBS). The proteins are precipitated using 5% trichloracetic acid (TCA) and washed in order to remove the free radioactivity. The proteins are incubated overnight at 37° C. using a proteinase K solution at 20 μl/ml in tris-HCl-Triton EDTA buffer.
(§3) 50 μl of total extract are taken and transferred into a 96-well plate (Wallac) and 150 μl of scintillation liquid (Optiphase “Supermix”) are added. The rest of the extract, i.e. 950 μl, is filtered through a DEAE Filtermat filter. After rinsing, the filter covered with the “Meltilex” solid scintillant is transferred into a counting plate. The radioactivity is counted using a Wallac counter. The results are expressed as a percentage of the control according to the formula: […]

Data set [2] has the same test system. Briefly: Melanogenesis modulation: 14C-thiouracil incorporation in keratinocyte/melanocyte coculture. The method, then:
Measurement of the melanogenesis-modulating effect of the copolymer of styrene/hydrolysed maleic anhydride (50/50) in sodium salt form, at 40% in water (SMA1000HNa® from the company Cray Valley), in the presence or absence of ascorbic acid, on a coculture of normal human keratinocytes and melanocytes.
The melanogenesis-modulating effect of the copolymer SMA1000HNa® was tested according to the method described in patent FR-A-2 734 825, and also in the article by R. Schmidt, P. Krien and M. Régnier, Anal. Biochem., 235(2), 113-18, 1996.
Briefly, the method comprises the steps consisting in:
coculturing normal human keratinocytes/melanocytes in a medium containing the tested extract and also a labelled melanin precursor, in the present case C14-labelled thiouracil,
lysing the cells containing the melanin with protein-degrading enzymes,
passing the extract obtained through an anion-exchange filter with a pore diameter of less than or equal to 1 μm, and
evaluating the amount of melanin bound by the filter by means of radioactive assay of the thiouracil.
as §1
The following controls are prepared: • control culture: test medium • positive melanogenesis-stimulating control: test medium+1 mM tyrosine; • 3 positive melanogenesis-inhibiting controls: test medium+, respectively, 500 μM of kojic acid; 100 μM of arbutin; […] of lucinol (2-butyl-1,3-benzenediol).
as §2, §3
14CP is the mean of the disintegrations per minute (dpm) of 14C-thiouracil on 3 similar wells treated with a product (P);
3HP is the mean of the dpm of the corresponding 3H-leucine;
14CT is the mean of the dpm of 14 C-thiouracil on 3 similar control wells (T);
3HT is the mean of the dpm of the corresponding 3H-leucine.
The ratio of the incorporation of thiouracil to the incorporation of leucine is calculated, to normalize the melanogenesis to the amount of proteins present in the well. This ratio reflects the melanogenesis modulation.

The test system of data set [3] is Normal human melanocyte/keratinocyte cocultures (NHM/NHK). The experiment in a line: Protein assay per well (toxicity estimate) in UV-irradiated NHM/NHK coculture. How it is done: (§4) Normal human melanocyte/keratinocyte cocultures (NHM/NHK) undergo 1 irradiation with UV radiation, repeated daily for 4 days, in the presence or absence of the products to be evaluated. The melanin synthesis is quantified as previously by means of the incorporation of ^14C-thiouracil present in the culture medium. In parallel, a protein assay is performed in each well in order to normalize the melanin synthesis and to estimate the toxicity of the product.
(§5) For each experimental condition, cell lysates are performed by rinsing the cells with a phosphate buffer (PBS). The proteins are precipitated using 5% trichloracetic acid (TCA) and washed in order to remove the free radioactivity. The proteins are incubated over a weekend at 37° C. using a proteinase K solution at 20 μl/ml in tris HCl-Triton-EDTA buffer.
(§6) 5 μl of total extract are taken and transferred into a 96-well plate (Wallac). The proteins are assayed using the Protein Assay Reagent assay kit (Pierce). The amount of proteins per well (P) will be used to normalize the melanogenesis. The rest of the extract is filtered on a DEAE Filtermat filter (Wallac). After rinsing, the filter covered with “Meltilex” solid scintillant (Wallac) is transferred into a Costar counting plate. The radioactivity is counted using a Wallac counter and allows quantification of the melanogenesis (M) by measurement of the ^14C-thiouracil (ccpm) incorporated by the cells.

Data set [4] has the same test system. Briefly: Photoinduced melanogenesis (UV irradiation) in NHM/NHK coculture, anti-pigmentation protocol.
Source text: Measurement of the photoinduced melanogenesis-modulating effect of the polymer SMA1000HNa® in the presence or absence of ascorbic acid on a coculture of normal human keratinocytes and melanocytes (anti-pigmentation effect).
as §4
More specifically, the melanocytes and keratinocytes are inoculated, respectively, at 80 000 and 250 000 cells per well in 24-well plates in the keratinocyte differentiation medium. The plates are incubated for 3 days at 37° C. before treatment.
To avoid photo-oxidation of one of its components, the culture medium is replaced at the time of irradiation with a solution of the products in PBS. The products are placed in contact with the cells for 15 minutes before irradiation.
The UV irradiation is performed using a sun simulator. The delivered dose is 7 J/cm^2. Irradiation source: Oriel Xénon 1000W simulator+dichroic filter+WG 320/1.5 mm.
The following controls are prepared:
Non-irradiated control (quantification of the constitutive melanogenesis)
Blank irradiation control
2 positive controls of photoinduced melanogenesis inhibition: (100 μM arbutin; 1 μM lucinol).
After irradiation, the PBS is removed and the cells are incubated in a semi-defined culture medium to which are added the products and the ^14C-thiouracil (1 μCi/ml). This treatment is repeated daily for 4 days.
as §5, §6
Normalized melanogenesis (NM)=M/P
Photo-induced melanogenesis (PIM)=NM (irradiated sample)−NM (non-irradiated sample)
Anti-pigmenting effect of the product (%)=[[PIM(irradiated+treated sample)−PIM(irradiated sample)]/PIM(irradiated sample)]×100

`N[C@@H](Cc1ccc(O)cc1)C(=O)O` [Tyrosine, tyrosine]: in data set [1] (1 mM), the “3H Leu. (%/Control)” value is reported as “+6%”. In data set [2] (1 mM), the “14C ThioU. (%/Control)” value is recorded as 96% and the “14C ThioU./3H Leu.” value was determined as 85%.

As for `O=C1O[C@H]([C@@H](O)CO)C(O)=C1O` [vitamin C, ascorbic acid], the “3H Leu. (%/Control)” value in data set [1] (vitamin C 0.1 mM) was 0%; in data set [1] (vitamin C 0.3 mM), −17%; in data set [1] (vitamin C 0.4 mM), −23%; in data set [1] (vitamin C 0.6 mM), −23%. For the same compound, the “Proteins (%/non-irradiated control)” value in data set [3] (vitamin C 0.3 mM, UV irradiated) is on record as −12%; in data set [3] (vitamin C 1 mM, UV irradiated), −19%; in data set [3] (vitamin C 2 mM, UV irradiated), −19%; in data set [3] (vitamin C 3 mM, UV irradiated) it was −22%. Also, the IC50 in data set [2] (Homo sapiens, vitamin C alone, read-out: IC50 (14C ThioU./3H Leu.)) is ~230 µM; in data set [4] (Homo sapiens, vitamin C alone, read-out: IC50 (anti-pigmenting effect)) it was ~470 µM. The “14C ThioU. (%/Control)” value is on record as −14% in data set [2] (vitamin C 0.1 mM), −69% in data set [2] (vitamin C 0.3 mM), −79% in data set [2] (vitamin C 0.4 mM) and −76% in data set [2] (vitamin C 0.6 mM). Further, the “14C ThioU./3H Leu.” value in data set [2] (vitamin C 0.1 mM) is reported as −14%; in data set [2] (vitamin C 0.3 mM), −62%; in data set [2] (vitamin C 0.4 mM), −72%; in data set [2] (vitamin C 0.6 mM) it was −68%. Besides, the “Anti-pigmenting effect of the product” value is reported as −40% in data set [4] (vitamin C 0.3 mM), −65% in data set [4] (vitamin C 1 mM), −90% in data set [4] (vitamin C 2 mM) and −100% in data set [4] (vitamin C 3 mM). The “PIM (%/non-irradiated control)” value in data set [4] (vitamin C 0.3 mM) was found to be 134%; in data set [4] (vitamin C 1 mM) it was 78%; in data set [4] (vitamin C 2 mM), 23%; in data set [4] (vitamin C 3 mM), 0%.

For `OC[C@H]1O[C@@H](Oc2ccc(O)cc2)[C@H](O)[C@@H](O)[C@@H]1O` [Arbutin, arbutin], the “3H Leu. (%/Control)” value in data set [1] (100 μM) is listed as −8%. For the same compound, the “Proteins (%/non-irradiated control)” value in data set [3] (100 μM + SSR) is −15%. Also, in data set [2] (100 μM), the “14C ThioU. (%/Control)” value is reported as −49% and the “14C ThioU./3H Leu.” value is listed as −44%. Further, in data set [4] (100 μM + SSR), the “Anti-pigmenting effect of the product” value is listed as −111% and the “PIM (%/non-irradiated control)” value is given as −24%.

`O=c1cc(CO)occ1O` [Kojic acid, kojic acid]: in data set [1] (500 μM), the “3H Leu. (%/Control)” value is reported as −8%. In addition, in data set [2] (500 μM), the “14C ThioU. (%/Control)” value is −56% and the “14C ThioU./3H Leu.” value is given as −52%.
